Assay results taken from patent US8796268B2, “Heteroaryls and uses thereof” (Millennium Pharmaceuticals, Inc., priority 2010, dated 2014).

Key:
Type in all cases: biochemical
Human PI3K beta = target: T1, Human PI3K beta (Homo sapiens, UniProt P42338); assay: Human PI3K beta enzyme assay (HTRF); settings: concentration not given, b1387 states 1.1 μM for PI3K α and β; for inhibition at 1.1 µM: read-out: p110 beta Percent Inhibition
T1 construct: His (N); host or cells: SF9 insect cells (baculovirus)
Summary of the method: (§1)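 Compounds were mixed with 25 uM ATP, then with 3.5 uM di-C8 PI(4,5)P2 and His-tagged PI3K isoform (β 5.25 nM, δ 0.75 nM, γ 5 nM) at pH 7.00. After 30 min at room temperature, EDTA stopped the reaction and PIP3 was measured by HTRF over 1 h.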

Human PI3K gamma = target: T2, Human PI3K gamma (Homo sapiens, UniProt P48736); assay: Human PI3K gamma enzyme assay (HTRF); settings: concentration not given, b1389 states 1.0 μM for PI3K δ and γ; for inhibition at 1 µM: read-out: p110 gamma Percent Inhibition
T2 construct: His (N); host or cells: SF9 insect cells (baculovirus)
Summary of the method: as §1

Human PI3K delta = target: T3, Human PI3K delta (Homo sapiens, UniProt O00329); assay: Human PI3K delta enzyme assay (HTRF); settings: concentration not given, b1389 states 1.0 μM for PI3K δ and γ; for inhibition at 1 µM: read-out: p110 delta Percent Inhibition
T3 construct: His (N); host or cells: SF9 insect cells (baculovirus)
Summary of the method: as §1

Human PI3K alpha = target: T4, Human PI3K alpha (Homo sapiens, UniProt P42336); assay: Human PI3K alpha enzyme assay (HTRF); settings: concentration not given, b1387 states 1.1 μM for PI3K α and β; for inhibition at 1.1 µM: read-out: p110 alpha Percent Inhibition
T4 construct: His (N); host or cells: SF9 insect cells (baculovirus)
T4 sequence (P42336 whole entry): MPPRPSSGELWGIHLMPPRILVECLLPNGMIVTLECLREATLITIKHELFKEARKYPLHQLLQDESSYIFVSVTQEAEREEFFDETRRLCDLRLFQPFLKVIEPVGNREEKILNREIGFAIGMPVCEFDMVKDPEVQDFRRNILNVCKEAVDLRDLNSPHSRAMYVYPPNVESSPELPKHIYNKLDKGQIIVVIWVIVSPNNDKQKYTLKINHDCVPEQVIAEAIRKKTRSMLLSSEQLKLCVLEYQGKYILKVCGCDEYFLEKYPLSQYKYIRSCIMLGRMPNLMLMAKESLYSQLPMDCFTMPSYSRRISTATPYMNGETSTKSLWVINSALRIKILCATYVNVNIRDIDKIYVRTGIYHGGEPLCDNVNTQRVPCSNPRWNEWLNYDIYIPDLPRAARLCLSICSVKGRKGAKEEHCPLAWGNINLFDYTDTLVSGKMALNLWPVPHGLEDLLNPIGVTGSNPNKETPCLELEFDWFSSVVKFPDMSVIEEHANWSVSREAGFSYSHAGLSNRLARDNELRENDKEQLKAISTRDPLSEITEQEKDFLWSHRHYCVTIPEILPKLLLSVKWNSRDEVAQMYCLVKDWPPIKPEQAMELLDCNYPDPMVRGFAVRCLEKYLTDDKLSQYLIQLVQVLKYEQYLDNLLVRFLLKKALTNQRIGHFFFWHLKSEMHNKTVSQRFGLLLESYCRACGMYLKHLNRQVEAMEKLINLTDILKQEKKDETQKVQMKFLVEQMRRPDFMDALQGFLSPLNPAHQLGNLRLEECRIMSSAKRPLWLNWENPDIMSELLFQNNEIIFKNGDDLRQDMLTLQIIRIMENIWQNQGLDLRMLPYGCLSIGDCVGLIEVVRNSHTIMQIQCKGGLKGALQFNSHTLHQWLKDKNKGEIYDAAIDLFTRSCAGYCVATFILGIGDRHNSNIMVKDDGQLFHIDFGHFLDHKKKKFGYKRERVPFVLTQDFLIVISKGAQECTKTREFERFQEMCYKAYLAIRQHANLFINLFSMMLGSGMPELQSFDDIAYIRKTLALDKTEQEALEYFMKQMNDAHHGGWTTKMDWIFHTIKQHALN
T4 sequence (P27986 whole entry partner): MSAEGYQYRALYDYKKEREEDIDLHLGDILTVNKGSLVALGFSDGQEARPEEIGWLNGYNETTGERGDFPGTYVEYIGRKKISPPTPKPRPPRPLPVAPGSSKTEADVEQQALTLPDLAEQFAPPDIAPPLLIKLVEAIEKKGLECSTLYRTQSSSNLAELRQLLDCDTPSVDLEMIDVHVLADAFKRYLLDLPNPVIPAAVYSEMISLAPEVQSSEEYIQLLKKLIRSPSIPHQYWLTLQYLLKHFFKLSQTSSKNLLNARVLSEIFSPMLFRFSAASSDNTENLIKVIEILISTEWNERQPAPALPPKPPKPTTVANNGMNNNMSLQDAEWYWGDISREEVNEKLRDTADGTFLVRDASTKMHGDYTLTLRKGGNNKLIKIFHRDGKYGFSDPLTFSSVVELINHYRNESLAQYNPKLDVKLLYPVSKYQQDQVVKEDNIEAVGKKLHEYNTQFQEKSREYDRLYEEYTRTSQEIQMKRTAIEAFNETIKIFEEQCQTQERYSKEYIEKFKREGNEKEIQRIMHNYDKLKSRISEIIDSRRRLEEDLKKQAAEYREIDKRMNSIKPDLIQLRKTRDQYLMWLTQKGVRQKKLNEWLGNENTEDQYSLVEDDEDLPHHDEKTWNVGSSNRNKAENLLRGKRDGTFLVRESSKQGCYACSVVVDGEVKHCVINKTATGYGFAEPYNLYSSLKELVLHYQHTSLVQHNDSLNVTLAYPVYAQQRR

T1 sequence (P42338 whole entry): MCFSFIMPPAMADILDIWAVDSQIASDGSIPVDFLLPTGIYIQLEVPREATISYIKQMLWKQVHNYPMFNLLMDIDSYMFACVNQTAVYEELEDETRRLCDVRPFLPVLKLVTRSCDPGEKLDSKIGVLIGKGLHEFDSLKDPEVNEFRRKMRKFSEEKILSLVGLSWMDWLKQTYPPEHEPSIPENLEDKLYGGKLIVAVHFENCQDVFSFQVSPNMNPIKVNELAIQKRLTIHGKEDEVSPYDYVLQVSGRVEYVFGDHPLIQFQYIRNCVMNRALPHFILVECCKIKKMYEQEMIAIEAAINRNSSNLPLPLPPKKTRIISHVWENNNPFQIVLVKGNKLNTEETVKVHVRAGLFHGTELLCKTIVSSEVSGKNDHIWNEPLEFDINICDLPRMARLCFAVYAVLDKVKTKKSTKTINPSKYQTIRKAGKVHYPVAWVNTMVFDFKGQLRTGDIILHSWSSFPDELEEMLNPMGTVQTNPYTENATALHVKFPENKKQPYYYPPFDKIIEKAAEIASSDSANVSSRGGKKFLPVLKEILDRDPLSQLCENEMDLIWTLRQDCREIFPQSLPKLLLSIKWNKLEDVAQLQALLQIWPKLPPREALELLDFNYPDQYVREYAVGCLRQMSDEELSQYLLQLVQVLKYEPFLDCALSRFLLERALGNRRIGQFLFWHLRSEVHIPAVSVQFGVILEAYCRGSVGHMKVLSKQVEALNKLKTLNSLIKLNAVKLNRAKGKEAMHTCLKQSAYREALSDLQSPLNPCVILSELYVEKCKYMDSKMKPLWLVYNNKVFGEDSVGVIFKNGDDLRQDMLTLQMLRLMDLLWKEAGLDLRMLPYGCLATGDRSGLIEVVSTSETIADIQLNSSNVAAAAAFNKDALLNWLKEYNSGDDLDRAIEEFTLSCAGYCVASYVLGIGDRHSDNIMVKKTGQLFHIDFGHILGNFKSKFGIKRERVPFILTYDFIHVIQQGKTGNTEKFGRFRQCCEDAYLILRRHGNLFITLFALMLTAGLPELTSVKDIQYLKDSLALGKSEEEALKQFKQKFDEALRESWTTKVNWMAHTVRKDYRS
T1 sequence (P27986 whole entry partner): as the sequence (P27986 whole entry partner) above
T3 sequence (O00329 whole entry): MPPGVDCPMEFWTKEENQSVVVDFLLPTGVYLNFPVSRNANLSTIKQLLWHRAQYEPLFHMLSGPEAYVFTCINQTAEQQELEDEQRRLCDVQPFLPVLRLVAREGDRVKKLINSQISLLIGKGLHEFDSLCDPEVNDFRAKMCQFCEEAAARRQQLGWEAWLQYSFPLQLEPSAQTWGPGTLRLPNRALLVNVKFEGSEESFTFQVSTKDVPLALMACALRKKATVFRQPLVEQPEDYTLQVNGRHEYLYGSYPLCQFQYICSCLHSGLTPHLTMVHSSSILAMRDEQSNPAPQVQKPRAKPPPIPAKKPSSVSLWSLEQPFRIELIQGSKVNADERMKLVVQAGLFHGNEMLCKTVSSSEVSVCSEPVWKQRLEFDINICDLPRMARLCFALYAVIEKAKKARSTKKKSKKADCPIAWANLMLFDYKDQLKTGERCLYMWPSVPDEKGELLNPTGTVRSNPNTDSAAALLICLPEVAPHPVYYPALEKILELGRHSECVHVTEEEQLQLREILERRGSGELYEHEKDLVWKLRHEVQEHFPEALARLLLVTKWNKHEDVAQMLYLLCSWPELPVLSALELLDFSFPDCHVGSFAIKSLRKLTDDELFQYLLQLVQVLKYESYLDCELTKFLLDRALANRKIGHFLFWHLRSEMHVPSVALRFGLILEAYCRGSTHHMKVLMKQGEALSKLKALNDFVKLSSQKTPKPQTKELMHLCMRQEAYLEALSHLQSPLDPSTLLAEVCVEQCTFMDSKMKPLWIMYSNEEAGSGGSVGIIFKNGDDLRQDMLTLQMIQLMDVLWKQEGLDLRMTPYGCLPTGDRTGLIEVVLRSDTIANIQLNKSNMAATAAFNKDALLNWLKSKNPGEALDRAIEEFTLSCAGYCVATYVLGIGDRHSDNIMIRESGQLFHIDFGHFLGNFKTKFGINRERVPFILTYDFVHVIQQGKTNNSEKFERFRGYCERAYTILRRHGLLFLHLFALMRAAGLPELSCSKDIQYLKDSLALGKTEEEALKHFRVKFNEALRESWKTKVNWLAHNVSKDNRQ
T3 sequence (P27986 whole entry partner): as the sequence (P27986 whole entry partner) above
T2 sequence (P48736 whole entry): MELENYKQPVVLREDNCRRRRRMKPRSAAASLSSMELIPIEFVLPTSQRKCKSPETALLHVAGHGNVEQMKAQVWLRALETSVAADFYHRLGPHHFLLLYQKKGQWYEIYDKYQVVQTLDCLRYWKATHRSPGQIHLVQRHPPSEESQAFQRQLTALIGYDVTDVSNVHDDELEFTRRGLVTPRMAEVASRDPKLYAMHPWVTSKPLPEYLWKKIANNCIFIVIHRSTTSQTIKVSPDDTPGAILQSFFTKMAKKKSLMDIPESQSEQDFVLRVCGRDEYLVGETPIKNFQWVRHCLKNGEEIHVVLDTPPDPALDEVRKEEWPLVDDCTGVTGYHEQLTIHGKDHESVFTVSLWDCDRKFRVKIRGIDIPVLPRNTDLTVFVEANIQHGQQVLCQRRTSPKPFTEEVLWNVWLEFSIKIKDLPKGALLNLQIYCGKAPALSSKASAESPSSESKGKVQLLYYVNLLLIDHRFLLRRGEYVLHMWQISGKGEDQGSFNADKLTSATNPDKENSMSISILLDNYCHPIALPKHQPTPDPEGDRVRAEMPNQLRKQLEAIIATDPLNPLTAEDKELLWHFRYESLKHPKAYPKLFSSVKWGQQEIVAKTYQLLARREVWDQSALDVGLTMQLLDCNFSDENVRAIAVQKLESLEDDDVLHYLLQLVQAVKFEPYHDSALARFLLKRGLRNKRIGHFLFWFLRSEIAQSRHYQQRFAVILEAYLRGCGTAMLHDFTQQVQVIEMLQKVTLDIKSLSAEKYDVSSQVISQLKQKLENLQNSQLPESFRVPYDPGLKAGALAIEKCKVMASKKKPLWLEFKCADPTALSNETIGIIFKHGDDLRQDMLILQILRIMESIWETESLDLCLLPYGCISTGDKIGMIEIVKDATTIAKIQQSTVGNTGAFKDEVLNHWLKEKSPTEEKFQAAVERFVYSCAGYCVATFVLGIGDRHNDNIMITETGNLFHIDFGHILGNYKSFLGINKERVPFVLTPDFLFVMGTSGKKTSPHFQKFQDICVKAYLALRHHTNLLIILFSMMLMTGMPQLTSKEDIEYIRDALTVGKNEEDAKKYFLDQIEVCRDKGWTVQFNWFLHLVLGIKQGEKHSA

inhibition at 1.1 µM (Human PI3K beta)	inhibition at 1 µM (Human PI3K gamma)	inhibition at 1 µM (Human PI3K delta)	inhibition at 1.1 µM (Human PI3K alpha)	p110 beta Percent Inhibition (Human PI3K beta)	p110 gamma Percent Inhibition (Human PI3K gamma)	p110 delta Percent Inhibition (Human PI3K delta)	p110 alpha Percent Inhibition (Human PI3K alpha)	SMILES
15%	6%	12%	4%					OC(c1ccccc1-c1cccnc1)c1cc(-c2ccncc2)sc1-c1nnc[nH]1 (stereo not drawn) [Compound 276]
				97%	55%	116%	95%	CC(=O)Nc1cc(-c2cc(C(c3ccc(Cl)cc3)N(C)C3CNC3)c(-c3nnc[nH]3)s2)ccn1 (stereo not drawn) [Compound 277]
98%					35%	83%	23%	COc1cc(C(O)c2cc(-c3ccnc(Cl)c3)sc2-c2nnc[nH]2)c(F)cc1Cl (stereo not drawn) [Compound 278]
106%	42%	78%	19%					COc1cc(C(O)c2cc(-c3ccncc3)sc2-c2nnc[nH]2)c(F)cc1Cl (stereo not drawn) [Compound 279]
106%	34%	92%	35%					OC(c1ccc2ccccc2c1)c1cc(-c2ccncc2)sc1-c1nnc[nH]1 (stereo not drawn) [Compound 280]
96%					56%	97%	52%	OC(c1cc(-c2ccncc2)sc1-c1nnc[nH]1)c1c(F)ccc2ccccc12 (stereo not drawn) [Compound 281]
99%			14%		21%	64%		COc1cc(C(O)c2cc(-c3ccnnc3)sc2-c2nnc[nH]2)c(F)cc1Cl (stereo not drawn) [Compound 282]
				114%	66%	110%	39%	OC(c1cc2ccccc2cc1F)c1cc(-c2ccncc2)sc1-c1nnc[nH]1 (stereo not drawn) [Compound 284]
				83%	18%	77%	16%	COc1cc(C(O)c2cc(-c3ccnc(C)c3)sc2-c2nnc[nH]2)c(F)cc1Cl (stereo not drawn) [Compound 285]
92%	50%	104%	36%					O=C(O)c1sc(N2CCOCC2)nc1Cc1cc2ccccc2s1 [Compound 286]
85%	19%	76%	14%					COc1ccc2cc(Cc3nc(N4CCOCC4)sc3C(=O)O)ccc2c1 [Compound 288]
32%	10%	32%	11%					Cc1nc2cc(Cc3nc(N4CCOCC4)sc3C(=O)O)ccc2s1 [Compound 289]
104%	49%	104%	23%					O=C(O)c1sc(N2CCOCC2)nc1Cc1cc(Cl)c(Cl)cc1F [Compound 290]
107%	57%	105%	36%					N#Cc1c(N2CCOCC2)sc(C(=O)O)c1C(N)c1ccc(Cl)c(Cl)c1 (stereo not drawn) [Compound 291]
82%	6%	56%	4%					O=C(O)c1sc(N2CCOCC2)nc1Cc1ccc2cnccc2c1 [Compound 292]
94%	35%	101%	47%					N#Cc1c(N2CCOCC2)sc(C(=O)O)c1Cn1cnc2ccccc2c1=O [Compound 294, 4-cyano-5-(morpholin-4-yl)-3-[(4-oxoquinazolin-3(4H)-yl)methyl]thiophene-2-carboxylic acid]
79%	14%	107%	37%					O=C(O)c1sc(N2CCOCC2)c(C#Cc2ccccc2)c1Cc1ccc(Cl)c(Cl)c1 [Compound 296, 3-(3,4-dichlorobenzyl)-5-(morpholin-4-yl)-4-(phenylethynyl)thiophene-2-carboxylic acid]
104%	33%	77%	26%					N#Cc1c(N2CCOC(CO)C2)sc(C(=O)O)c1Cc1ccc2ccccc2c1 (stereo not drawn) [Compound 297, 4-cyano-5-[2-(hydroxymethyl)morpholin-4-yl]-3-(2-naphthylmethyl)thiophene-2-carboxylic acid]
95%	38%	103%	11%					O=C(NO)c1sc(N2CCOCC2)nc1Cc1ccc(Cl)c(Cl)c1 [Compound 298, 4-(3,4-dichlorobenzyl)-N-hydroxy-2-(morpholin-4-yl)-1,3-thiazole-5-carboxamide]
109%	42%	108%	39%					O=C(O)c1sc(N2CCOCC2)nc1Cc1ccc2cccc(F)c2c1 [Compound 299]
107%	49%	89%	55%					COc1ccc2cc(Cc3c(C(=O)O)sc(N4CCOCC4)c3C#N)ccc2c1 [Compound 301]
100%	15%	97%	21%					Cn1c(Cc2nc(N3CCOCC3)sc2C(=O)O)cc2ccccc21 [Compound 302]
110%	69%	115%	99%					O=C(O)c1sc(N2CCOCC2)nc1Cc1cc2cc(Br)ccc2s1 [Compound 303]
25%	7%	32%	6%					CC(C)C(c1ccc(Cl)cc1)c1nc(N2CCOCC2)sc1C(=O)O (stereo not drawn) [Compound 304]
109%	51%	108%	81%					COCC(c1ccc2ccccc2c1)c1c(C(=O)O)sc(N2CCOCC2)c1C#N (stereo not drawn) [Compound 306]
101%	66%	108%	56%					N#Cc1c(N2CCOCC2)sc(C(=O)O)c1Cc1ccc2ccncc2c1 [Compound 309, 4-cyano-3-(isoquinolin-7-ylmethyl)-5-(morpholin-4-yl)thiophene-2-carboxylic acid]
106%	64%	105%	34%					O=C(O)c1sc(N2CCOCC2)nc1Cc1ccc2ccc(F)cc2c1 [Compound 310]
104%	64%	105%	55%					N#Cc1c(N2CCOCC2)sc(C(=O)O)c1Cc1ccc2sccc2c1 [Compound 311]
105%	47%	92%	64%					N#Cc1c(N2CCOCC2)sc(C(=O)O)c1Cc1cc2cc(F)ccc2[nH]1 [Compound 312]
117%		86%			30%		73%	N#Cc1c(N2CCOCC2)sc(C(=O)O)c1C(CCO)c1ccc2ccccc2c1 (stereo not drawn) [Compound 313]
